# Results reported in article PMC8145596, “Novel Chemically Modified Curcumin (CMC) Derivatives Inhibit Tyrosinase Activity and Melanin Synthesis in B16F10 Mouse Melanoma Cells” (Biomolecules, 2021).
# Key:
# [1] = test system: B16F10 mouse melanoma cells; assay: MTS cell viability assay; format: cell-based; conditions: for cell viability / cytotoxicity: 48 h; for cell viability: B16F10; for cytotoxicity: B16F10, full concentration range
# Experimental: B16F10 mouse melanoma cells (CRL-6475™) were obtained from American Type Culture Collection (ATCC, Manassas, VA, USA) and cultured using Dulbecco’s Modified Eagle Medium (DMEM) supplemented with 10% heat-inactivated fetal bovine serum (HI-FBS) and 1% antibiotics (penicillin-streptomycin) in a humidified incubator with 95% air—5% CO2 at 37 °C. In order to test the four CMCs (CMC2.14, CMC2.24, CMC2.5 and CMC2.23) to that of PC, for their effects on melanin content, we first screened them for cytotoxicity using a tetrazolium assay with MTS (Promega CellTiter Aqueous One). Briefly, B16F10 cells were seeded at 4 × 10^3 cells/well in a 96-well plate for 24 h. The compounds were diluted using culture medium to yield a final DMSO in all groups of 0.16% and added to the cell monolayers in wells after 24 h. Control was treated with 0.16% DMSO. At the end of 48 h, the medium was aspirated and replaced by 100 μL of fresh medium. 20 μL of MTS reagent was then added, and the plate was incubated at 37 °C for 40 min. At this point, the absorbance of 100 μL aliquots was read at 490 nm using a microplate reader. Cell viability was calculated from the absorbance values relative to control groups and expressed in %.
# [2] = test system: B16F10 mouse melanoma cells; assay: Melanin levels in B16F10 cells; format: cell-based; conditions: for suppression of melanin levels: 48 h
# Experimental: B16F10 cells (1 × 10^5 cells/well) were seeded in 12-well plates and cultured for 24 h. The medium was then replaced with compounds at nontoxic concentrations that were selected on the basis of the MTS assay and incubated for another 48 h. After the treatments, the cells were detached using TrypLE (1×), and cell pellets were washed in PBS. Cell pellets were visually observed for lightening of the pigment. After aspiration, 250 μL of 1N NaOH was added and heated to 70 °C to solubilize melanin. The aliquots were then transferred to a 96-well plate and absorbance was read at 475 nm using a microplate reader. The absorbance was normalized to total protein content and was expressed as % of control.
# [3] = test system: α-glucosidase activity in B16F10 cells; assay: Intracellular α-glucosidase assay; format: cell-based, mouse; conditions: 48 h; for inhibition at 10 µM / inhibition at 20 µM / inhibition at 25 µM / inhibition at 5 µM: Mus musculus, B16-F10, read-out: inhibition of cellular α-glucosidase activity
# Experimental: B16F10 cells (2.2 × 10^5) were grown in 6-well plates and compounds were added next day for 48 h. Cells were harvested, lysed and 50 µL of lysates were aliquoted in a 96-well plate with 100 µL of 2 mM pNG substrate; rate of the formation of the yellow-colored reaction product, p-nitrophenol, was monitored at 405 nm for 30 min at 37 °C in a microplate reader (kinetic mode) and values were normalized to total protein contents. The cellular α-glucosidase activity was calculated as (rate of sample reaction/rate of control reaction) × 100 and was expressed as percentage of control.
# [4] = test system: MNT-1 human melanoma cells; assay: Melanin content assay in MNT-1 cells; format: cell-based; conditions: 48 h; CMC2.24 at 20 µM; preliminary evaluation
# Experimental: II. Experiments in MNT-1 human melanoma cells
# MNT-1 cells (kindly provided by Dr. Michael Marks, University of Pennsylvania) were cultured using DMEM supplemented with 1 % MEM (minimum essential medium), 18 % HI-FBS, 10 % AIM-V medium (Gibco) and 1 % antibiotic mixture.
# MNT-1 human melanoma cells (2 × 10^4 cells/ well) were seeded in a 96-well plate and cultured for 96 h. After this, the test compounds were added in complete medium and cultures were maintained for 48 h, followed by conducting the MTS assay to detect cytotoxicity similar to methods reports in main text. The results were expressed as % normalized to untreated control group.
# MNT-1 human melanoma cells were seeded at 2.2 × 10^5 cells/well in 12-well plates and incubated for 24 hours. […] Briefly, the absorbance of melanin was measured at 475 nm and was normalized to the total protein contents and reported as relative melanin levels as a % of control.
# Figure S3: Viability of MNT-1 cells treated with A) PC, CMC2.14 and CMC2.5 and B) CMC2.23 and CMC2.24 for a duration of 48 h evaluated by MTS assay; Data for A)-B) are mean ± SD of 3-4 determinations; C) Melanin content in cultures of MNT-1 cells treated for 48 h with different concentrations of PC and CMCs, Data are mean ± SD of values combined from two independent experiments. * p < 0.05 vs. control (Ctrl); One-way ANOVA with Tukey’s […]
# [5] = molecular target: T1, α-glucosidase enzyme from Baker’s yeast (Saccharomyces cerevisiae, UniProt P53341); assay: Cell-free α-glucosidase assay; format: biochemical
# T1 construct: purchased Sigma-Aldrich (St. Louis, MO, USA)
# Experimental: The effects of compounds on α-glucosidase were assayed based on the method decribed previously with some modifications. 80 µL of samples (prepared in 0.05 M phosphate buffer, pH 6.8) were aliquoted in a 96-well microplate followed by the addition of 100 µL of 2.4 mM pNG substrate solution. A volume of 20 µL of 0.45 units of α-glucosidase enzyme from Baker’s yeast prepared in 0.05 M buffer was added to start the reaction; the rate of the formation of p-nitrophenol was monitored at 405 nm for 15 min at 37 °C in a microplate reader in kinetic mode. The enzyme activity (%) was calculated as: (rate of sample reaction/rate of control reaction) × 100%.
# [6] = test system: tyrosinase activity in B16F10 cells; assay: Intracellular tyrosinase activity in B16F10 cell lysates; format: cell-based, mouse; conditions: 48 h
# Experimental: B16F10 cells (4 × 10^4 cells/well in 1 mL medium) were cultured in 24-well plates for 24 h. After that, the medium was replaced by fresh medium containing the compounds, and further incubated for 48 h. At the end of treatments, the cells were harvested, and cell pellets were washed in PBS and lysed and then centrifuged. Lysates (50 µL) were then aliquoted in a 96-well plate and 150 µL of 3 mM L-DOPA was added. The absorbance was measured at 475 nm every 30 s for 40 min at 30 °C using a microplate reader in the kinetic mode. The tyrosinase activity was calculated from the slope of the linear range of the velocity in the presence of each test compound and normalized to the total protein content and reported as % of control.
# T1 sequence (P53341 whole entry): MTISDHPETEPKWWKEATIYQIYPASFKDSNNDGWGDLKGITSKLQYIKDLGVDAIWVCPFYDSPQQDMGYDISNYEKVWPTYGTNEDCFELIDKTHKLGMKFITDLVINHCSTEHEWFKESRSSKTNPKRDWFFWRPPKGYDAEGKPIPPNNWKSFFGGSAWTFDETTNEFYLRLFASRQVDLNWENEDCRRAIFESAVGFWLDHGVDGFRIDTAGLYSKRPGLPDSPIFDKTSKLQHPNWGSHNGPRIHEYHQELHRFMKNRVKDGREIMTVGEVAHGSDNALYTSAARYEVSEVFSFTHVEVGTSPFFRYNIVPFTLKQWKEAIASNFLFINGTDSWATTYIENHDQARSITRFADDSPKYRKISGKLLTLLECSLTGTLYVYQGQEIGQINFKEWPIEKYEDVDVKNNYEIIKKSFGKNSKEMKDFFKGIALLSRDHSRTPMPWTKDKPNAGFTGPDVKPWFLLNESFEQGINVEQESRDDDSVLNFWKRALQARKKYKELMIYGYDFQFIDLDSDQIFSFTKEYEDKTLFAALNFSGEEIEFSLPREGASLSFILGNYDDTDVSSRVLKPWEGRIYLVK
compound,measurement,setting,value
"1,7-bis(4-hydroxy-3-methoxyphenyl)-1,6-heptadien-3,5-dione [PC, reference compound]",cell viability,[1]; 20 µM,29.47%
same,cell viability,[1]; 25 µM,30.83%
same,concentrations with significant cytotoxicity,"[1]; B16F10, 48 h",> 10 µM
same,suppression of melanin levels,[2]; 10 µM,20.92%
same,inhibition of cellular α-glucosidase activity,[3]; 5 µM,13.71%
same,inhibition of cellular α-glucosidase activity,[3]; 10 µM,10.47%
same,melanin inhibition in MNT-1 cells,[4],ineffective
same,inhibition of cell-free α-glucosidase activity,[5]; 5 µM,20.13%
same,inhibition of cell-free α-glucosidase activity,[5]; 10 µM,22.13%
same,suppression of intracellular tyrosinase activity,[6]; 10 µM,47.85%
"COC(=O)/C(C(=O)/C=C/c1ccc(O)c(OC)c1)=C(O)\C=C\c1ccc(O)c(OC)c1 [CMC2.5, 4-methoxycarbonyl curcumin]",cytotoxicity,[1],nontoxic over the full concentration range
same,suppression of melanin levels,[2]; 20 µM,34.84%
same,suppression of melanin levels,[2]; 25 µM,31.40%
same,inhibition at 10 µM,[3]; 10 µM,12.4%
same,inhibition at 20 µM,[3],25.6%
same,inhibition at 25 µM,[3]; 25 µM,27.4%
same,inhibition at 20 µM,[5],14%
same,cell-free α-glucosidase activity,[5]; concentrations other than 20 µM,no change was observed at any other concentration
same,suppression of intracellular tyrosinase activity,[6]; 10 µM,19.98%
same,suppression of intracellular tyrosinase activity,[6]; 20 µM,23.16%
same,suppression of intracellular tyrosinase activity,[6]; 25 µM,26%
COC(=O)/C(C(=O)/C=C/c1ccc(O)cc1)=C(O)\C=C\c1ccc(O)cc1 [CMC2.14],suppression of melanin levels,[2]; 10 µM,28.42%
same,inhibition at 10 µM,[3]; 10 µM,16.5%
same,inhibition at 10 µM,[5]; 10 µM,14.3%
same,suppression of intracellular tyrosinase activity,[6]; 5 µM,47.96%
same,suppression of intracellular tyrosinase activity,[6]; 10 µM,50.31%
COc1cc(/C=C/C(=O)/C(C(=O)Nc2ccccc2)=C(O)/C=C/c2ccc(O)c(OC)c2)ccc1O [CMC2.23],cytotoxicity,[1],nontoxic over the full concentration range
same,suppression of melanin levels,[2]; 10 µM,28.63%
same,suppression of melanin levels,[2]; 20 µM,33.68%
same,suppression of melanin levels,[2]; 25 µM,37.87%
same,inhibition of cellular α-glucosidase activity,[3]; 25 µM,no change
same,inhibition at 5 µM,[3]; 5 µM,12.4%
same,inhibition at 10 µM,[3]; 10 µM,14.9%
same,inhibition at 20 µM,[3],11.8%
same,inhibition at 5 µM,[5]; 5 µM,15.5%
same,inhibition at 10 µM,[5]; 10 µM,16.5%
same,inhibition at 20 µM,[5],19.8%
same,inhibition at 25 µM,[5],17.2%
same,suppression of intracellular tyrosinase activity,[6]; 10 µM,30.04%
same,suppression of intracellular tyrosinase activity,[6]; 20 µM,44.64%
same,suppression of intracellular tyrosinase activity,[6]; 25 µM,51.47%
O=C(/C=C/c1ccc(O)cc1)/C(C(=O)Nc1ccccc1)=C(O)/C=C/c1ccc(O)cc1 [CMC2.24],cytotoxicity,[1],nontoxic over the full concentration range
same,suppression of melanin levels,[2]; 10 µM,32.54%
same,fold higher level of melanin inhibition vs PC,[2]; 20 µM,1.5 fold
same,suppression of melanin levels,[2]; 20 µM,43.53%
same,fold higher level of melanin inhibition vs PC,[2]; 25 µM,2 fold
same,suppression of melanin levels,[2]; 25 µM,41.07%
same,inhibition at 5 µM,[3]; 5 µM,10.2%
same,inhibition at 10 µM,[3]; 10 µM,12.6%
same,inhibition at 20 µM,[3],20.3%
same,inhibition at 25 µM,[3]; 25 µM,16.4%
same,melanin inhibition in MNT-1 cells,[4],significant attenuation of melanin levels
same,inhibition at 5 µM,[5]; 5 µM,27.1%
same,inhibition at 10 µM,[5]; 10 µM,25.6%
same,inhibition at 20 µM,[5],35.3%
same,inhibition at 25 µM,[5],41.3%
same,suppression of intracellular tyrosinase activity,[6]; 5 µM,38.6%
same,suppression of intracellular tyrosinase activity,[6]; 10 µM,53.76%
same,suppression of intracellular tyrosinase activity,[6]; 20 µM,64.25%
same,suppression of intracellular tyrosinase activity,[6]; 25 µM,68.81%
